In patent US9670150B2, “(2-ureidoacetamido)alkyl derivatives as formyl peptide receptor 2 modulators” (Allergan, Inc., priority 2012, dated 2017):
Like-named read-outs stand apart in the source and are kept apart here.

Molecular target: T1, FPR2 (Homo sapiens, UniProt P25090)
T1 construct: expressed in transfected cells; host or cells: CHO-Ga16 cells stably expressing FPR2
T1 sequence (P25090 1-351): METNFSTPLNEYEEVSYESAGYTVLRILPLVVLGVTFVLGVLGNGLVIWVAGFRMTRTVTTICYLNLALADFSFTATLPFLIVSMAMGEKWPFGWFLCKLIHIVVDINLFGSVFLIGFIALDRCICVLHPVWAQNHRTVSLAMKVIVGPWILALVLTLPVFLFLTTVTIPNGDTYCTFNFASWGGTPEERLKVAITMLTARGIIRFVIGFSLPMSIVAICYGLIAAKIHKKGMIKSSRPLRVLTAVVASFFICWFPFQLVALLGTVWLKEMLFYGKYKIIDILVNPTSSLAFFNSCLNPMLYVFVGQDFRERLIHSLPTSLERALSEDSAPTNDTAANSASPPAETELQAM
Assay: compound-induced calcium activity on FLIPR Tetra in CHO-Ga16 cells stably expressing FPR2
Format: cell-based
Conditions: for Emax: efficacy value given as a fraction, read-out: FPR2 Ga16-CHO (0.% eff) efficacy
Procedure: CHO-Ga16 cells stably expressing FPR2 were cultured in (F12, 10% FBS, 1% PSA, 400 μg/ml geneticin and 50 μg/ml hygromycin) and HEK-Gqi5 cells stable expressing FPR2 were cultured in (DMEM high glucose, 10% FBS, 1% PSA, 400 μg/ml geneticin and 50 μg/ml hygromycin). In general, the day before the experiment, 18,000 cells/well were placed in a 384-well clear bottom poly-d-lysine coated plate. The following day the screening compound-induced calcium activity was assayed on the FLIPR^Tetra. The drug plates were prepared in 384-well microplates using the EP3 and the MuItiPROBE robotic liquid handling systems. Compounds were tested at concentrations ranging from 0.61 to 10,000 nM. Results are expressed as EC50 (nM) and efficacy values.

[1] = CHO-Ga16 cells stably expressing FPR2
[2] = CHO-Ga16 cells stably expressing FPR2, calcium activity, FLIPR Tetra, concentrations 0.61 to 10,000 nM

`CCOP(=O)(O)CNC(=O)[C@H](CC(C)C)NC(=O)Nc1ccc(Br)cc1` [Compound 15, Ethyl hydrogen({[(2S)-2-({[(4-bromophenyl)amino]carbonyl}amino)-4-methylpentanoyl]amino}methyl)phosphonate] gave an EC50 of 0.95 nM and an Emax [1] of 88%.

With `CCOP(=O)(CNC(=O)[C@H](CC(C)C)NC(=O)Nc1ccc(C(F)(F)F)cc1)OCC` [Compound 11, Diethyl [({(2S)-4-methyl-2-[({[4-(trifluoromethyl)phenyl]amino}carbonyl)amino]pentanoyl}amino)methyl]phosphonate] the EC50 [2] was 8 nM and the Emax [1] was 100%.

`CCCC(NC(=O)Nc1ccc(Br)cc1)C(=O)NCP(=O)(O)OC(C)C` (centres unmarked) [Compound 19, Iso-propyl hydrogen ({[2-({[(4-bromophenyl)amino]carbonyl}amino)pentanoyl]amino}methyl)phosphonate] showed an EC50 [2] of 1.87 nM and an Emax [1] of 89%.

With `CC(C)C[C@H](NC(=O)Nc1ccc(C(F)(F)F)cc1)C(=O)NCP(=O)(O)O` [Compound 23, [({(2S)-4-methyl-2-[({[4-(trifluoromethyl)phenyl]amino}carbonyl)amino]pentanoyl}amino)methyl]phosphonic acid] the EC50 [2] was 64 nM and the Emax [1] was 102%.

Molecule `CC(C)C[C@H](NC(=O)Nc1ccc(Br)cc1)C(=O)NCc1nnn[nH]1` [Compound 2, (2S)-2-({[(4-Bromophenyl)amino]carbonyl}amino)-4-methyl-N-(1H-tetrazol-5-ylmethyl)pentanamide] has an EC50 [2] of 2.3 nM and an Emax [1] of 81%.

`CCOP(=O)(O)CNC(=O)[C@@H](NC(=O)Nc1ccc(Br)cc1)[C@@H](C)CC` [Compound 16, Ethyl hydrogen ({[(2S,3S)-2-({[(4-bromophenyl)amino]carbonyl}amino)-3-methylpentanoyl]amino}methyl)phosphonate] showed an EC50 [2] of 3.2 nM and an Emax [1] of 88%.

`CC(C)C[C@H](NC(=O)Nc1ccc(Br)cc1)C(=O)NCS(=O)(=O)O` [{[(2S)-2-{[(4-Bromophenyl)carbamoyl]amino}-4-methylpentanoyl]amino}methanesulfonic acid] showed an EC50 [2] of 2.3 nM and an Emax [1] of 91%.

In the case of `CCOP(=O)(CNC(=O)[C@H](Cc1ccccc1)NC(=O)Nc1ccc(Br)cc1)OCC` [Compound 7, Diethyl ({[(2S)-2-({[(4-bromophenyl)amino]carbonyl}amino)-3-phenylpropanoyl]amino}methyl)phosphonate], the EC50 [2] is reported as 20 nM and the Emax [1] is reported as 98%.

`CCC[C@H](NC(=O)Nc1ccc(Br)cc1)C(=O)NCP(=O)(O)OCC` [Compound 17, Ethyl hydrogen ({[(2S)-2-({[(4-bromophenyl)amino]carbonyl}amino)pentanoyl]amino}methyl)phosphonate] showed an EC50 of 1 nM and an Emax [1] of 94%.

`CCOP(=O)(CNC(=O)[C@H](CC(C)C)NC(=O)Nc1ccc(Br)cc1)OCC` [Compound 1, Diethyl({[(2S)-2-({[(4-bromophenyl)amino]carbonyl}amino)-4-methylpentanoyl]amino}methyl)phosphonate] showed an EC50 [2] of 0.59 nM and an Emax [1] of 100%.

With `CC(C)C[C@H](NC(=O)Nc1ccc(C(F)(F)F)cc1)C(=O)NCc1nnn[nH]1` [Compound 12, (2S)-4-methyl-N-(1H-tetrazol-5-ylmethyl)-2-[({[4-(trifluoromethyl)phenyl]amino}carbonyl)amino]pentanamide] the EC50 [2] was 4 nM and the Emax [1] was 91%.

In the case of `CCOP(=O)(CCNC(=O)[C@H](CC(C)C)NC(=O)Nc1ccc(Br)cc1)OCC` [Compound 8, Diethyl (2-{[(2S)-2-({[(4-bromophenyl)amino]carbonyl}amino)-4-methylpentanoyl]amino}ethyl)phosphonate], the EC50 [2] is reported as 1.8 nM and the Emax [1] is reported as 100%.

In the case of `CCC[C@H](NC(=O)Nc1ccc(Br)cc1)C(=O)NCP(=O)(O)O` [Compound 22, ({[(2S)-2-({[(4-bromophenyl)amino]carbonyl}amino)pentanoyl]amino}methyl)phosphonic acid], the EC50 [2] is reported as 32 nM and the Emax [1] is reported as 94%.

`CCOP(=O)(CNC(=O)[C@@H](NC(=O)Nc1ccc(Br)cc1)[C@@H](C)CC)OCC` [Compound 5, Diethyl ({[(2S,3S)-2-({[(4-bromophenyl)amino]carbonyl}amino)-3-methylpentanoyl]amino}methyl)phosphonate] showed an EC50 [2] of 2.4 nM and an Emax [1] of 100%.

In the case of `CC(C)C[C@H](NC(=O)Nc1ccc(C(F)(F)F)cc1)C(=O)NCS(=O)(=O)O` [Compound 13, ({(2S)-4-methyl-2-[({[4-(trifluoromethyl)phenyl]amino}carbonyl)amino]pentanoyl}amino)methanesulfonic acid], the EC50 [2] is reported as 1.6 nM and the Emax [1] is reported as 100%.

`CC(C)C[C@H](NC(=O)Nc1ccc(Br)cc1)C(=O)NCc1cc(O)no1` [Compound 4, (2S)-2-({[(4-Bromophenyl)amino]carbonyl}amino)-N-[(3-hydroxyisoxazol-5-yl)methyl]-4-methylpentanamide] showed an EC50 [2] of 12 nM and an Emax [1] of 100%.

`CCOP(=O)(O)CNC(=O)[C@H](Cc1ccccc1)NC(=O)Nc1ccc(Br)cc1` [Compound 18, Ethyl hydrogen ({[(2S)-2-({[(4-bromophenyl)amino]carbonyl}amino)-3-phenylpropanoyl]amino}methyl)phosphonate] was tested, and the EC50 was 16 nM and the Emax [1] was 110%.

`CC(C)C[C@H](NC(=O)Nc1ccc(Br)cc1)C(=O)NCCc1nnn[nH]1` [Compound 3, (2S)-2-({[(4-Bromophenyl)amino]carbonyl}amino)-4-methyl-N-[2-(1H-tetrazol-5-yl)ethyl]pentanamide] gave an EC50 [2] of 47.9 nM and an Emax [1] of 100%.

With `CCOP(=O)(O)CNC(=O)[C@H](CC(C)C)NC(=O)Nc1ccc(S(C)(=O)=O)cc1` [Compound 21, ethyl hydrogen [({(2S)-4-methyl-2-[({[4-(methylsulfonyl)phenyl]amino}carbonyl)amino]pentanoyl}amino)methyl]phosphonate] the EC50 [2] was 133 nM and the Emax [1] was 99%.

For `CCC[C@H](NC(=O)Nc1ccc(Br)cc1)C(=O)NCP(=O)(OC(C)C)OC(C)C` [Compound 9, Diisopropyl ({[(2S)-2-({[(4-bromophenyl)amino]carbonyl}amino)pentanoyl]amino}methyl)phosphonate], the EC50 [2] was 0.8 nM and the Emax [1] was 94%.

In the case of `CCC[C@H](NC(=O)Nc1ccc(Br)cc1)C(=O)NCP(=O)(OCC)OCC` [Compound 6, Diethyl ({[(2S)-2-({[(4-bromophenyl)amino]carbonyl}amino)pentanoyl]amino}methyl)phosphonate], the EC50 [2] is reported as 0.29 nM and the Emax [1] is reported as 94%.

`CCOP(=O)(CNC(=O)[C@H](CC(C)C)NC(=O)Nc1ccc(SC)cc1)OCC` [Compound 14, Diethyl [({(2S)-4-methyl-2-[({[4-(methylthio)phenyl]amino}carbonyl)amino]pentanoyl}amino)methyl]phosphonate] was tested, and the EC50 [2] was 2.1 nM and the Emax [1] was 90%.

`CCOP(=O)(O)CNC(=O)[C@H](CC(C)C)NC(=O)Nc1ccc(C(F)(F)F)cc1` [Compound 20, Ethyl hydrogen [({(2S)-4-methyl-2-[({[4-(trifluoromethyl)phenyl]amino}carbonyl)amino]pentanoyl}amino)methyl]phosphonate] was tested, and the EC50 [2] was 2 nM and the Emax [1] was 95%.

Molecule `CC(C)C[C@H](NC(=O)Nc1ccc(Br)cc1)C(=O)NCP(=O)(OC(C)C)OC(C)C` [Compound 10, Diisopropyl ({[2-({[(4-bromophenyl)amino]carbonyl}amino)-4-methylpentanoyl]amino}methyl)phosphonate] has an EC50 [2] of 4 nM and an Emax [1] of 100%.

Work on `CCOP(=O)(CNC(=O)[C@H](CC(C)C)NC(=O)Nc1ccc(S(C)(=O)=O)cc1)OCC` [Compound 24, Diethyl[({(2S)-4-methyl-2-[({[4-(methylsulfonyl)phenyl]amino}carbonyl)amino]pentanoyl}amino)methyl]phosphonate] yielded an EC50 [2] of 45 nM and an Emax [1] of 112%.
